Legend:
Gram+ bacteria = conditions: cited from earlier work
Gram-bacteria = conditions: cited from earlier work
Enterococcus faecalis = experiment: Agarose gel diffusion test; assay type: cell-based; conditions: agar diffusion, this experiment
Protocol: An adaptation of the agarose gel diffusion test was tested and validated for dental cements. The analysis was performed using the plaque assay. In the case of a test on samples of various concentrations, the ICM can be estimated using a software available on an on-line platform developed by Bonev in 2008 (http://agardiffusion.com) (Principles of assessing bacterial susceptibility to antibiotics using the agar diffusion method J. Antimic. Chemoth., 61 12951301).
For this experiment, liposomes and disinfecting fillers were produced as described in 8.1 and 7.6 a.
3 mm circular wells were punched using a disposable biopsy needle into Mueller-Hinton agar. The agar was then homogeneously inoculated with 100 μL of a solution of Enterococcus faecalis adjusted to a concentration of 0.5 MacFarland. Bio Root™ cement was then prepared (500 mg powder+250 μL liquid+/−35 μL CEM CHX 0918-001). The wells were then filled with cement using a pipetman for viscous solutions. The agar plates were then incubated at 37° C. under aerobic conditions for 24 hours. The area of growth inhibition was then measured using a ruler (FIG. 26).
To measure the effect of the prolonged release of antimicrobial agent, agar plates were prepared as above but without being inoculated with E. faecalis. […] The plates were then incubated for 24 hours and the lysis areas measured with a ruler.

calculated MIC (Enterococcus faecalis) [µg/mL]	Compound	MIC (concentration corresponding to the elimination of 90% of the bacteria) (Gram+ bacteria) [µg/mL]	MIC (concentration corresponding to the elimination of 90% of the bacteria) (Gram-bacteria) [µg/mL]
	[H]/N=C(\N/C(=N/[H])NCCCCCCNC(=N)NC(=N)Nc1ccc(Cl)cc1)Nc1ccc(Cl)cc1 [chlorhexidine]	22	40
15.5	N=C(NCCCCCCNC(=N)NC(=N)Nc1ccc(Cl)cc1)NC(=N)Nc1ccc(Cl)cc1.O=C(O)[C@H](O)[C@@H](O)[C@H](O)[C@H](O)CO.O=C(O)[C@H](O)[C@@H](O)[C@H](O)[C@H](O)CO [chlorhexidine digluconate]		

Source: patent US20200315923A1, “DESINFECTANT BONE AND DENTAL FILLER MATERIALS COMPRISING LIPOSOMES” (Cementic, priority 2017, published 2020)
